Results reported in patent publication US5980939A, “Cyclosporin-containing pharmaceutical composition” (Chong Kun Dang Corp., priority 1996, dated 1999).
Each block holds one compound with its values, some of them ahead of it.

Experiments:
[1] = Experiment 3: permeability of hydrophilic cosurfactant to the gelatin shell, content in soft capsule in course of time; format: physicochemical; settings: for Change of the content of hydrophilic cosurfactant: solvent:Cremophor RH40 3:7 in soft capsule
Source text: Propylene glycol which contains --OH group in its molecular structure and therefore has high hygroscopic and hydrophilic properties is distributed in the capsule shell according to the movement of water present in the contents and gelatin capsule during encapsulation and drying procedures and therefore, is permeated to the capsule shell in course of time. According to this, since the constitutional ratio of the contents is greately varied at the early stage, of manufacturing procedures of the capsule preparation, the stability of the preparation cannot be ensured and further the reliable therapeutic effect cannot be obtained. […] Hereinafter, the permeability to the gelatin shell of the hydrophilic cosurfactant used in the soft capsule according to the present invention was determined and compared with the shell permeability of propylene glycol, transcutol, glycofurol or dimethylisosorbide used as the hydrophilic cosurfactant in the soft capsule according to the prior art. The content of each solvent in each soft capsule preparation was analyzed by gas chromatography and HPLC. […] At regular intervals, the constant amount of the sample was taken and then analyzed.
Column: Ultra 2; Column temperature: 23° C.; Detector: FID; Detector temperature: 270° C.; Injection temperature: 275° C.; Carrier gas: He; Injection volume: 5 μl; Internal standard: octyl alcohol
Column: 10% PEG 20M; Column temperature: 160° C.; Detector: FID; Injection temperature: 200° C.; Carrier gas: N2; Injection volume: 1 μl; Internal standard: pentadecanoic acid methyl ester
Column: Ultra 2; Column temperature: 230° C.; Detector: FID; Detector temperature: 270° C.; Injection temperature: 270° C.; Carrier gas: He; Injection volume: 5 μl; Internal standard: pentadecanoic acid methyl ester

[2] = species and route not given; cited from earlier work
rat = settings: per oral; cited from earlier work
[3] = Experiment 1: reactivity of hydrophilic cosurfactant with the gelatin shell by thermoanalyzer (DSC/DDSC); format: physicochemical; settings: soft gelatin capsule filled with solvent, stored at room temperature, 3 months
Method: Test for the reactivity of the hydrophilic cosurfactant according to the present invention with the gelatin shell in comparison to the reactivity of the solvents used in the prior art using a thermoanalyzer: The reactivities of the hydrophilic cosurfactant used according to the present invention and propylene glycol used as the hydrophilic cosurfactant in the prior preparation with the gelatin shell were determined using a thermoanalyzer. Each of the hydrophilic cosurfactants and mineral oil as the control solvent was filled in the soft gelatin capsule. The filled capsule was stored at room temperature. At regular intervals, the capsules were cut open by a sharp open blade, and the contents were removed by washing with ether and then about 20 mg of gelatin shell was accurately weighed and analyzed. The programed heating rate was 10° C./minute under nitrogen purge from 25 °C. to 300° C.

mouse = settings: intravenous injection; cited from earlier work

Compound: CC1COC(=O)O1 (racemic) [Propylene carbonate, (±)-4-methyl-1,3-dioxolan-2-one]
stability of the cosurfactant content in soft capsule (in words) [1]: at least comparable stability to dimethylisosorbide and is more stable than propylene glycol, transcutol and glycofurol
Change of the content of hydrophilic cosurfactant ([1]; day 0): 30.1 wt %
Change of the content of hydrophilic cosurfactant ([1]; day 5): 29.8 wt %
Change of the content of hydrophilic cosurfactant ([1]; day 15): 28.6 wt %
Change of the content of hydrophilic cosurfactant ([1]; day 30): 28.4 wt %
Change of the content of hydrophilic cosurfactant ([1]; day 60): 28.7 wt %
Change of the content of hydrophilic cosurfactant ([1]; day 90): 27.4 wt %
Change of the content of hydrophilic cosurfactant ([1]; day 120): 28.0 wt %
LD50 [2]: 29000 mg/kg

Compound: CO[C@H]1CO[C@H]2[C@@H]1OC[C@H]2OC [Dimethylisosorbide, 1,4:3,6-dianhydro-2,5-dimethyl-D-glucitol]
Change of the content of hydrophilic cosurfactant ([1]; day 0): 30.0 wt %
Change of the content of hydrophilic cosurfactant ([1]; day 5): 28.2 wt %
Change of the content of hydrophilic cosurfactant ([1]; day 15): 29.1 wt %
Change of the content of hydrophilic cosurfactant ([1]; day 30): 28.7 wt %
Change of the content of hydrophilic cosurfactant ([1]; day 60): 28.0 wt %
Change of the content of hydrophilic cosurfactant ([1]; day 90): 26.6 wt %
Change of the content of hydrophilic cosurfactant ([1]; day 120): 25.8 wt %
LD50 (rat): 5.63 mL/kg

Compound: CC(O)CO (stereo not drawn) [Propylene glycol, 1,2-propylene glycol]
Change of the content of hydrophilic cosurfactant ([1]; day 0): 29.9 wt %
Change of the content of hydrophilic cosurfactant ([1]; day 5): 21.9 wt %
Change of the content of hydrophilic cosurfactant ([1]; day 15): 22.8 wt %
Change of the content of hydrophilic cosurfactant ([1]; day 30): 21.0 wt %
Change of the content of hydrophilic cosurfactant ([1]; day 60): 22.4 wt %
Change of the content of hydrophilic cosurfactant ([1]; day 90): 21.5 wt %
Change of the content of hydrophilic cosurfactant ([1]; day 120): 19.5 wt %
DSC/DDSC pattern of gelatin shell versus shell of capsule filled with mineral oil [3]: shows a new peak
LD50 (rat): 21000 to 33700 mg/kg

Change of the content of hydrophilic cosurfactant ([1]; day 0): 30.1 wt %
Change of the content of hydrophilic cosurfactant ([1]; day 5): 22.1 wt %
Change of the content of hydrophilic cosurfactant ([1]; day 15): 23.1 wt %
Change of the content of hydrophilic cosurfactant ([1]; day 30): 21.9 wt %
Change of the content of hydrophilic cosurfactant ([1]; day 60): 22.1 wt %
Change of the content of hydrophilic cosurfactant ([1]; day 90): 21.7 wt %
Change of the content of hydrophilic cosurfactant ([1]; day 120): 20.3 wt %
Compound: CCOCCOCCO [Transcutol, diethyleneglycol monoethyl ether]

Compound: CC(C)=O [acetone]
LD50 (rat): 10.7 mL/kg

Compound: CC#N [acetonitrile]
LD50 (rat): 3800 mg/kg

Compound: c1ccccc1 [benzene]
LD50 (rat): 3.8 mL/kg

Compound: CC(C)O [isopropanol]
LD50 (rat): 5800 mg/kg

Compound: tetrahydrofurfurylalcohol polyethylene glycol [Glycofurol]
LD50 (mouse): 3.5 mL/kg
Change of the content of hydrophilic cosurfactant ([1]; day 0): 30.0 wt %
Change of the content of hydrophilic cosurfactant ([1]; day 5): 24.4 wt %
Change of the content of hydrophilic cosurfactant ([1]; day 15): 21.0 wt %
Change of the content of hydrophilic cosurfactant ([1]; day 30): 23.5 wt %
Change of the content of hydrophilic cosurfactant ([1]; day 60): 21.0 wt %
Change of the content of hydrophilic cosurfactant ([1]; day 90): 20.7 wt %
Change of the content of hydrophilic cosurfactant ([1]; day 120): 20.4 wt %
